Reference: article PMC5511029 (Journal of molecular biology, 2017)

Target: E. coli cysteinyl-tRNA synthetase (EcCysRS) (Escherichia coli, UniProt P21888)
Test: aminoacylation of E. coli tRNA-Cys with […]-Cys by purified CysRS
Assay type: biochemical

Chain of E. coli cysteinyl-tRNA synthetase (EcCysRS) (P21888 whole entry): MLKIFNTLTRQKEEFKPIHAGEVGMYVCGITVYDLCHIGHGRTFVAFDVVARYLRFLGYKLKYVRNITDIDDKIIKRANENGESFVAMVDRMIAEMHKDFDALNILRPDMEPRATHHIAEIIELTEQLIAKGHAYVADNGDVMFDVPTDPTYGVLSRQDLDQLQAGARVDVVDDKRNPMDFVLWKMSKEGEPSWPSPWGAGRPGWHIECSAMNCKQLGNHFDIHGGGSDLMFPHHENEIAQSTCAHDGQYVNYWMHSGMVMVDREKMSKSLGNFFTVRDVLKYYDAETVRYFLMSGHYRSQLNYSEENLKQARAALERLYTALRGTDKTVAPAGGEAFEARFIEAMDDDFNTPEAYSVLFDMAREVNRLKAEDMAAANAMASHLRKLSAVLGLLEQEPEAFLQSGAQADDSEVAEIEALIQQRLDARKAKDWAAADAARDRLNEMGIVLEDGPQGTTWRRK

Nc1ncnc2c1ncn2[C@@H]1O[C@H](COS(=O)(=O)NC(=O)[C@@H](N)CS)[C@@H](O)[C@H]1O [Cys-AMS]
IC50: < 600 nM
